Reference: patent publication US9062041B2 (Bayer Intellectual Property GmbH, priority 2011, dated 2015)

What was measured:
human PGD receptor = target: T1, human PGD receptor (Homo sapiens, UniProt Q13258); test: cAMP antagonism test on the human prostaglandin D receptor (HTRF cAMP detection); type: cell-based; settings: selectivity towards hDP, IC50 measured by cAMP antagonism test
T1 sequence (Q13258 1-359): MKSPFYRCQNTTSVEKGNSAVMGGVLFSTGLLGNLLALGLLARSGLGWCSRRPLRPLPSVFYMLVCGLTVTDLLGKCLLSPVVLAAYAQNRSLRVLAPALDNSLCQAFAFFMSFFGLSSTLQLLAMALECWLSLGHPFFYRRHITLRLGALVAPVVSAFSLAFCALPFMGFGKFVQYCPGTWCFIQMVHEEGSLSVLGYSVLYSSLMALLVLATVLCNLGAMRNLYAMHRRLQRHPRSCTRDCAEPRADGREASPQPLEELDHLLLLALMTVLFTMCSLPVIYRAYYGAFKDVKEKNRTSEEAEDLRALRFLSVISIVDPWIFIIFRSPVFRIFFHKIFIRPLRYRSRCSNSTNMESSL
Outline: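 HTRF competition read-out (665/620 nm ratio ×10000), where higher FRET means less cAMP, i.e. antagonism. Compounds (0.8 nM–16.5 μM) were preincubated 20 min at RT with cells and cAMP-d2, PGD2 (3× solution, 6 nM) in IBMX-containing PBS added for 30 min at RT, then cells lysed 20 min.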

[1] = target: EP4 subtype of the human PGE2 receptor (Homo sapiens, UniProt P35408); test: cAMP antagonism test on the human EP4 receptor (HTRF cAMP detection); type: cell-based; settings: selectivity towards hEP4, IC50 measured by cAMP antagonism test
Outline: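 Competitive HTRF cAMP read-out (cAMP-d2 vs Eu-cryptate anti-cAMP antibody, 665/620 nm ratio) on lysed human EP4 cells. Compound (0.8 nM–16.5 μM) applied 20 min at RT before 60 min PGE2 challenge (3× solution 0.3 nM, IBMX present); 20 min lysis precedes reading.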

cumulus-oocyte complexes = test: Cumulus expansion test in vitro; type: cell-based, mice (strain: B6D2F1); settings: for inhibition at 1 µM / inhibition at 0.5 µM: Mus musculus, 0.3 μM PGE2 for stimulation; for inhibition at 1 µM: read-out: % reduction at 1 μM (reduction in the cumulus expansion); for inhibition at 0.5 µM: read-out: % reduction at 0.5 μm (reduction in the cumulus expansion)
Experimental: 4.2. Cumulus Expansions Test In Vitro In immature female mice (strain: B6D2F1 from Charles River), at an age of 14-18 days, the folliculogenesis was induced by a single administration (intraperitoneal) of 10 IU of PMSG (pregnant mare serum gonadotropin; Sigma G-4877, Lot 68H0909). 47-50 hours after the injection, the ovaries were removed and the cumulus-oocyte complexes removed. At this stage, the cumulus complex is not yet expanded. The cumulus-oocyte complexes were now incubated for 20-24 hours with prostaglandin E2 (PGE) (0.3 μM), vehicle control (ethanol) or test substances. Medium: alpha-MEM medium with 0.1 mM IBMX, pyruvate (0.23 mM), glutamine (2 mM), pen/strep 100 IU/ml pen. and 100 μg/ml strep.), HSA (8 mg/ml) and foetal bovine serum (FBS, 10%). The cumulus expansion was then established through the subdivision into four stages (after Vanderhyden et al. Dev Biol. 1990 August; 140(2):307-317).

[2] = target: EP2 subtype of the human PGE2 receptor (Homo sapiens, UniProt P43116); test: cAMP antagonism test on the human EP2 receptor (HTRF cAMP detection); type: cell-based; settings: hEP2 receptor, read-out: Antagonism hEP2 IC50
Outline: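 Read-out is a competitive HTRF for cAMP: lysate cAMP displaces cAMP-d2 from Eu cryptate-labelled antibody, and antagonism raises the 665/620 nm ratio. Compound (0.8 nM–16.5 μM) added to EP2 cells 20 min at RT before 60 min PGE2 challenge (3× stock 1.5 nM) with IBMX, followed by 20 min lysis.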

Chain of EP2 subtype of the human PGE2 receptor (P43116 whole entry): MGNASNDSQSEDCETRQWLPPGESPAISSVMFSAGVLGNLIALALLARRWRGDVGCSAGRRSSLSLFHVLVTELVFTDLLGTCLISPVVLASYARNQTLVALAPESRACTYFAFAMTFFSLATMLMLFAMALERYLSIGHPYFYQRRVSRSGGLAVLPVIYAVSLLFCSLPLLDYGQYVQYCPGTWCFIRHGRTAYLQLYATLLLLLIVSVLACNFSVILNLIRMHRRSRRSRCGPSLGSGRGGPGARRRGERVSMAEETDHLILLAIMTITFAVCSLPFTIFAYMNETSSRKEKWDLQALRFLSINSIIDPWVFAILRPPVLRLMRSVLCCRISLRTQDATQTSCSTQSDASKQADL
Chain of EP4 subtype of the human PGE2 receptor (P35408 whole entry): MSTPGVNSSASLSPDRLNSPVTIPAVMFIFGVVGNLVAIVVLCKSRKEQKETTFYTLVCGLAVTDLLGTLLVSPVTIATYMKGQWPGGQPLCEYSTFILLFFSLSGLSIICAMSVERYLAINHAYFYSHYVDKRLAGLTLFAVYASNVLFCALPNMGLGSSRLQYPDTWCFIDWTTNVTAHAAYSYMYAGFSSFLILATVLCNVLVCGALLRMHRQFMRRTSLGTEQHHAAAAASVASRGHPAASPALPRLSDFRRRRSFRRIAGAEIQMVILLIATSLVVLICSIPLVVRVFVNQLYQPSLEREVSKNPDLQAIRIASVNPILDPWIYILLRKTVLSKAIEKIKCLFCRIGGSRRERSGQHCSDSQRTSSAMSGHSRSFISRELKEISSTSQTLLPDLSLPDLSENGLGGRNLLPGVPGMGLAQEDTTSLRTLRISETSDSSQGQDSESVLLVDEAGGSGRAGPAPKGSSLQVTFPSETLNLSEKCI

SMILES | Selectivity hEP2/hDP (human PGD receptor) | Selectivity hEP2/hEP4 [1] | IC50 [2] [nM] | inhibition at 1 µM (cumulus-oocyte complexes) [%] | inhibition at 0.5 µM (cumulus-oocyte complexes) [%] | suppression of the cumulus expansion (cumulus-oocyte complexes; concentration of 100-200 μM, PGE2 0.3 μM)
CC(C)Oc1ccc2c(=O)c3cc(C(=O)O)ccc3oc2c1 [AH6809, reference compound] | – | – | – | – | – | ca. 30%
Cc1c(C(=O)NCC2COCCO2)ccc2nn(CC3CCN(C(=O)c4ccc(-c5ccc(F)cc5)cc4)CC3)cc12 (racemic) [Example 411, (+/−)-N-(1,4-dioxan-2-ylmethyl)-2-({1-[(4′-fluorobiphenyl-4-yl)carbonyl]-piperidin-4-yl}methyl)-4-methyl-2H-indazol-5-carboxamide] | xxx (xxx > 100) | xxx (xxx > 100) | 16.5 | – | – | –
COCCNC(=O)c1cc2cn(CC3CCN(C(=O)c4ccc(S(F)(F)(F)(F)F)cc4)CC3)nc2cc1C [Example 210, N-(2-methoxyethyl)-6-methyl-2-({1-[4-(pentafluoro-λ^6-sulphanyl)benzoyl]-piperidin-4-yl}methyl)-2H-indazol-5-carboxamide] | xxx (xxx > 100) | xxx (xxx > 100) | 19.5 | – | – | –
O=C(NCCOCC1CC1)c1ccc2nn(CC3CCN(C(=O)c4ccc(-c5ccc(F)cc5)cc4)CC3)cc2c1OCC(F)(F)F [Example 237, N-[2-(cyclopropylmethoxy)ethyl]-2-({1-[(4′-fluorobiphenyl-4-yl)carbonyl]piperidin-4-yl}methyl)-4-(2,2,2-trifluoroethoxy)-2H-indazol-5-carboxamide] | xxx (xxx > 100) | xxx (xxx > 100) | 31 | – | – | –
Cc1c(C(=O)NCC(F)(F)F)ccc2nn(CC3CN(C(=O)c4cc5cc(F)ccc5n4C)C3)cc12 [Example 167, 2-({1-[(5-fluoro-1-methyl-1H-indol-2-yl)carbonyl]azetidin-3-yl}methyl)-4-methyl-N-(2,2,2-trifluoroethyl)-2H-indazol-5-carboxamide] | xxx (xxx > 100) | xxx (xxx > 100) | 13.5 | – | – | –
COC(C)CNC(=O)c1cc2cn(CC3CN(C(=O)c4ccc(OC(F)(F)F)cc4)C3)nc2cc1C (racemic) [Example 193, (+/−)-N-(2-methoxypropyl)-6-methyl-2-({1-[4-(trifluoromethoxy)benzoyl]-azetidin-3-yl}methyl)-2H-indazol-5-carboxamide] | xxx (xxx > 100) | xxx (xxx > 100) | 145 | – | – | –
COCCNC(=O)c1ccc2nn(CC3CCN(C(=O)c4cnc(-c5ccccc5)o4)CC3)cc2c1C [Example 339, N-(2-methoxyethyl)-4-methyl-2-({1-[(2-phenyloxazol-5-yl)carbonyl]piperidin-4-yl}methyl)-2H-indazol-5-carboxamide] | xxx (xxx > 100) | xxx (xxx > 100) | 7.15 | – | – | –
[2H]C([2H])([2H])OC([2H])([2H])C([2H])([2H])NC(=O)c1ccc2nn(CC3CCN(C(=O)c4ccc(Oc5ccc(F)cc5)cc4)CC3)cc2c1C [Example 116, 2-({1-[4-(4-fluoro-phenoxy)benzoyl]-piperidin-4-yl}methyl)-4-methyl-N-(2-[^2H3]-methyloxy[^2H4]ethyl)-2H-indazol-5-carboxamide] | xxx (xxx > 100) | xxx (xxx > 100) | 5.52 | – | – | –
COCCNC(=O)c1cc2cn(CC3CN(C(=O)c4ccc(Cl)cc4F)C3)nc2cc1C [Example 183, 2-{[1-(4-chloro-2-fluorobenzoyl)azetidin-3-yl]methyl}-N-(2-methoxyethyl)-6-methyl-2H-indazol-5-carboxamide] | xxx (xxx > 100) | xxx (xxx > 100) | 46.6 | – | – | –

Now from value to compound, other results behind:

Selectivity hEP2/hDP (human PGD receptor) | Selectivity hEP2/hEP4 [1] | IC50 [2] [nM] | SMILES | inhibition at 1 µM (cumulus-oocyte complexes) [%] | inhibition at 0.5 µM (cumulus-oocyte complexes) [%] | suppression of the cumulus expansion (cumulus-oocyte complexes; concentration of 100-200 μM, PGE2 0.3 μM)
xxx (xxx > 100) | xxx (xxx > 100) | 5.11 | COCCNC(=O)c1ccc2nn(CC3CCN(C(=O)c4ccc(-c5ccc(F)cc5)cc4)CC3)cc2c1C [Example 5, 2-({1-[(4′-fluorobiphenyl-4-yl)carbonyl]piperidin-4-yl}methyl)-N-(2-methoxy-ethyl)-4-methyl-2H-indazol-5-carboxamide] | 59 | 56 | –
xxx (xxx > 100) | xxx (xxx > 100) | 6.26 | COCCNC(=O)c1ccc2nn(CC3CCN(C(=O)c4ccc(Oc5ccc(C(F)(F)F)cn5)cc4)CC3)cc2c1C [Example 345, N-(2-methoxyethyl)-4-methyl-2-{[1-(4-{[5-(trifluoromethyl)pyridin-2-yl]oxy}-benzoyl)piperidin-4-yl]methyl}-2H-indazol-5-carboxamide] | 36 | 18 | –
xxx (xxx > 100) | xxx (xxx > 100) | 33.4 | COCCNC(=O)c1ccc2nn(CC3CCN(C(=O)c4ccc(Cl)cc4)CC3)cc2c1OC [Example 262, 2-{[1-(4-chlorobenzoyl)piperidin-4-yl]methyl}-4-methoxy-N-(2-methoxyethyl)-2H-indazol-5-carboxamide] | – | – | –
xxx (xxx > 100) | xxx (xxx > 100) | 56.1 | Cc1c(C(=O)NCCC#N)ccc2nn(CC3CCN(C(=O)c4ccc(Cl)cc4)CC3)cc12 [Example 400, 2-{[1-(4-chlorobenzoyl)piperidin-4-yl]methyl}-N-(2-cyanoethyl)-4-methyl-2H-indazol-5-carboxamide] | – | – | –
xxx (xxx > 100) | xxx (xxx > 100) | 21.2 | Cc1c(C(=O)NCCN2CCC(F)(F)C2)ccc2nn(CC3CN(C(=O)c4ccc(Cl)cc4)C3)cc12 [Example 126, 2-{[1-(4-chlorobenzoyl)azetidin-3-yl]methyl}-N-[2-(3,3-difluoropyrrolidin-1-yl)ethyl]-4-methyl-2H-indazol-5-carboxamide] | – | – | –
xxx (xxx > 100) | xxx (xxx > 100) | 6.58 | Cc1c(C(=O)NCCOC(C)C)ccc2nn(CC3CCN(C(=O)c4ccc(C5CC5)cc4)CC3)cc12 [Example 101, 2-{[1-(4-cyclopropyl-benzoyl)piperidin-4-yl]methyl}-N-(2-isopropoxyethyl)-4-methyl-2H-indazol-5-carboxamide] | – | – | –
xx (xx: 10-100) | xx (xx: 10-100) | 181 | COc1c(C(=O)NCC(F)(F)F)ccc2nn(CC3CCN(C(=O)c4ccc(Cl)cc4)CC3)cc12 [Example 263, 2-{[1-(4-chlorobenzoyl)piperidin-4-yl]methyl}-4-methoxy-N-(2,2,2-trifluoro-ethyl)-2H-indazol-5-carboxamide] | – | – | –
xxx (xxx > 100) | xxx (xxx > 100) | 150 | Cc1c(C(=O)NCC(C)OCC2CC2)ccc2nn(CC3CCN(C(=O)c4ccc(C5CC5)cc4)CC3)cc12 (racemic) [Example 106, (+/−)-2-{[1-(4-cyclopropylbenzoyl)piperidin-4-yl]-methyl}-N-[2-(cyclopropyl-methoxy)propyl]-4-methyl-2H-indazol-5-carboxamide] | – | – | –
xxx (xxx > 100) | xxx (xxx > 100) | 38.3 | COCCNC(=O)c1ccc2nn(CC3CCN(C(=O)c4ccc(Cl)cc4)CC3)cc2c1OCC(F)(F)F [Example 232, 2-{[1-(4-chlorobenzoyl)piperidin-4-yl]methyl}-N-(2-methoxyethyl)-4-(2,2,2-trifluoroethoxy)-2H-indazol-5-carboxamide] | – | – | –
xxx (xxx > 100) | xxx (xxx > 100) | 11.5 | COCCNC(=O)c1ccc2nn(CC3CCN(C(=O)c4ccc(OC(F)F)cc4F)CC3)cc2c1C [Example 40, 2-({1-[4-(difluoro-methoxy)-2-fluoro-benzoyl]piperidin-4-yl}methyl)-N-(2-methoxyethyl)-4-methyl-2H-indazol-5-carboxamide] | – | – | –
